Test system: IFN-γ
Assay: IFN-γ production by PHA-stimulated human PBMC (OptEIA human IFN-g ELISA)
Assay type: cell-based
Conditions: PHA-stimulated human PBMC, 48 hours; column C; read-out: IC50 (IFNγ)
Method: Analysis of Proliferation of and Cytokine Production by Human PBMC Stimulated with PHA
Peripheral blood mononuclear cells (PBMC) from healthy human donors were purified using Accuspin™ System-Histopaque-1077 (Sigma) according to the protocol recommended by the manufacturer. Purified PBMC were then washed twice with phosphate-buffered saline (PBS) and resuspended in RPMI1640 culture medium supplemented with 10% dialyzed heat inactivated fetal calf serum, 1.5 mM L-glutamine, 100 U penicillin/ml, and […] (all from PAN Biotech, Aidenbach, Germany). For stimulation, PBMC were seeded at 1×10^5 cells/well, activated with 2 μg/ml phytohaemagglutinin (PHA, Sigma) and incubated with the test compounds for 48 hours. IL-17A, IL-17F and INF-γ were then determined in the culture supernatant using a Luminex BioPlex system, following the manufacturer's instructions (BioRad, Munich, Germany). For screening, compounds were used at 10, 1, 0.1 and 0.01 μM. To determine the IC50, compounds were titrated semilogarithmically.
Cytokines were determined in the aforementioned culture supernatant using the following methods: IL-17AA/AF was measured using the Luminex BioPlex system (BioRad, Munich, Germany); IL-17AA using the human homodimer IL-17A ELISA Ready Set Go Kit from eBioscience (Frankfurt, Germany); IL-17FF using the human IL-17F ELI-Pair from Hölzel DiagnosticaGmBH (Köln, Germany); and IFN-γ using the OptEIA human IFN-g ELISA from BD Bioscience (Heidelberg, Germany), all following the manufacturer's instructions.

Row | SMILES | IC50 [nM]
1 | CCOC(=O)c1c(-c2onc(-c3c(F)cccc3Cl)c2C(=O)OC)cnn1-c1ccsc1C(=O)OC [Example I-15, methyl 3-(2-chloro-6-fluorophenyl)-5-(5-(ethoxycarbonyl)-1-(2-(methoxycarbonyl)thiophen-3-yl)-1H-pyrazol-4-yl)isoxazole-4-carboxylate] | 1000 to 10000
2 | COC(=O)c1c(-c2c(F)cccc2Cl)noc1-c1cnn(CCO)c1C(F)(F)F [Example I-83, methyl 3-(2-chloro-6-fluorophenyl)-5-(1-(2-hydroxyethyl)-5-(trifluoromethyl)-1H-pyrazol-4-yl)isoxazole-4-carboxylate] | 1000 to 10000
3 | COc1ccccc1-n1ncc(-c2onc(-c3c(F)cccc3Cl)c2Br)c1C(F)(F)F [IB-23, 4-bromo-3-(2-chloro-6-fluorophenyl)-5-(1-(2-methoxyphenyl)-5-(trifluoromethyl)-1H-pyrazol-4-yl)isoxazole] | 1000 to 10000
4 | COC(=O)c1c(-c2c(F)cccc2Cl)noc1-c1cnn(CCN2CCCCC2)c1C(F)(F)F [Example I-104, methyl 3-(2-chloro-6-fluorophenyl)-5-(1-(2-(piperidin-1-yl)ethyl)-5-(trifluoromethyl)-1H-pyrazol-4-yl)isoxazole-4-carboxylate] | 1000 to 10000
5 | COC(=O)c1c(-c2c(F)cccc2Cl)noc1-c1cnn(-c2ccccc2Br)c1C(F)(F)F [Example I-80, methyl 5-(1-(2-bromophenyl)-5-(trifluoromethyl)-1H-pyrazol-4-yl)-3-(2-chloro-6-fluorophenyl)isoxazole-4-carboxylate] | 1000 to 10000
6 | CC(=O)NNC(=O)c1c(-c2c(F)cccc2Cl)noc1-c1cnn(-c2ccccc2F)c1C(F)(F)F [Example I-142, N′-acetyl-3-(2-chloro-6-fluorophenyl)-5-(1-(2-fluorophenyl)-5-(trifluoromethyl)-1H-pyrazol-4-yl)isoxazole-4-carbohydrazide] | 1000 to 10000
7 | COC(=O)c1c(-c2c(F)cccc2Cl)noc1-c1cnn(-c2ccc(OC)cc2)c1C(F)(F)F [Example I-79] | 1000 to 10000
8 | O=C(O)c1c(-c2cccc(F)c2)noc1-c1cnn(-c2cccc(F)c2)c1C(F)(F)F [Example I-114, 3-(3-fluorophenyl)-5-(1-(3-fluorophenyl)-5-(trifluoromethyl)-1H-pyrazol-4-yl)isoxazole-4-carboxylic acid] | 1000 to 10000
9 | Fc1ccc(-n2ncc(-c3cc(-c4c(F)cccc4Cl)no3)c2C(F)(F)F)cc1 [Example I-25, 3-(2-chloro-6-fluorophenyl)-5-(1-(4-fluorophenyl)-5-(trifluoromethyl)-1H-pyrazol-4-yl)isoxazole] | 1000 to 10000
10 | CCOC(=O)c1c(-c2onc(-c3c(F)cccc3Cl)c2C(=O)OC)cnn1-c1c(F)c(F)cc(F)c1F [Example I-38, methyl 3-(2-chloro-6-fluorophenyl)-5-(5(ethoxycarbonyl)-1-(2,3,5,6-tetrafluorophenyl)-1H-pyrazol-4-yl)isoxazole-4-carboxylate] | 1000 to 10000
11 | Fc1ccccc1-n1ncc(-c2onc(-c3c(F)cccc3Cl)c2C(=S)N2CCOCC2)c1C(F)(F)F [Example I-123, (3-(2-chloro-6-fluorophenyl)-5-(1-(2-fluorophenyl)-5-(trifluoromethyl)-1H-pyrazol-4-yl)isoxazol-4-yl)(morpholino)meth-anethione] | 1000 to 10000
12 | COC(=O)c1c(-c2c(F)cccc2Cl)noc1-c1cnn(Cc2ccccn2)c1C(F)(F)F [Example I-101, methyl 3-(2-chloro-6-fluorophenyl)-5-(1-(pyridin-2-ylmethyl)-5-(trifluoromethyl)-1H-pyrazol-4-yl)isoxazole-4-carboxylate] | 1000 to 10000
13 | CNC(=O)c1c(-c2ccc(Cl)cc2)noc1-c1cnn(-c2cccc(F)c2)c1C(F)(F)F [Example I-75, 3-(4-chlorophenyl)-5-(1-(3-fluorophenyl)-5-(trifluoromethyl)-1H-pyrazol-4-yl)-N-methylisoxazole-4-carboxamide] | 1000 to 10000
14 | CCOC(=O)c1c(-c2ccc(Cl)c(Cl)c2)noc1-c1cnn(-c2cccc(F)c2)c1C(F)(F)F [Example I-99, ethyl 3-(3,4-dichlorophenyl)-5-(1-(3-fluorophenyl)-5-(trifluoromethyl)-1H-pyrazol-4-yl)isoxazole-4-carboxylate] | 1000 to 10000
15 | CCOC(=O)c1c(-c2onc(-c3c(F)cccc3Cl)c2C(=O)OC)cnn1-c1ccc(OC(F)(F)F)cc1 [Example I-45, methyl 3-(2-chloro-6-fluoro-phenyl)-5-(5-(ethoxycarbonyl)-1-(4-(trifluoromethoxy)phenyl)1H-pyrazol-4-yl)isoxazole-4-carboxylate] | 1000 to 10000
16 | CC(C)Cn1ncc(-c2onc(-c3c(F)cccc3Cl)c2C(=O)O)c1C(F)(F)F [IB-19, 3-(2-chloro-6-fluorophenyl)-5-(1-isobutyl-5-(trifluoromethyl)-1H-pyrazol-4-yl)isoxazole-4-carboxylic acid] | 1000 to 10000
17 | CCOC(=O)c1c(-c2onc(-c3c(F)cccc3Cl)c2C(=O)OC)cnn1-c1ccccc1OC [Example I-40] | 1000 to 10000

Same assay, conditions: human PBMC, 2 μg/ml PHA, 48 hours; read-out: C: IC50 (IFNγ)

Row | SMILES | IC50 [nM]
18 | Fc1cccc(Cl)c1-c1noc(-c2cnn(-c3ccccc3Cl)c2C(F)(F)F)c1-c1nnco1 [Example B-14, 2-(3-(2-chloro-6-fluorophenyl)-5-(1-(2-chlorophenyl)-5-(trifluoromethyl)-1H-pyrazol-4-yl)isoxazol-4-yl)-1,3,4-oxadiazole] | 1000 to 10000

Test system: PBMC from healthy human donors
Assay: T cell proliferation assay (PHA-stimulated human PBMC, BrdU ELISA)
Assay type: cell-based
Conditions: PHA-stimulated human PBMC, 48 hours, column D, read-out: IC50 (Tcell proliferation)
Method: Cell proliferation was analysed using the BrdU based cell proliferation ELISA from Roche (Mannheim, Germany) according to the manufacturer's instructions. T Cell Proliferation Assay Peripheral blood mononuclear cells (PBMC) from healthy human donors were isolated by centrifugation over Ficoll-Hypaque (Sigma-Aldrich, Germany) according to manufacturer's instructions. Purified PBMC were washed twice with PBS and resuspended in RPMI1640 culture medium supplemented with 10% dialyzed heat inactivated fetal calf serum, 1.5 mM L-glutamine, 100 U penicillin/ml, and […] (all from PAN Biotech, Aidenbach, Germany). For stimulation, PBMC were seeded at 1×10^5 cells/well, activated with 2 μg/ml phytohaemagglutinin (PHA, Sigma) and incubated with the test compound. After 48 hours proliferation was measured using the BrdU based cell proliferation ELISA from Roche (Mannheim, Germany) according to the manual.

Row | SMILES | IC50 [nM]
19 | NNC(=O)c1c(-c2cccc(F)c2)noc1-c1cnn(-c2cccc(F)c2)c1C(F)(F)F [Example I-134, 3-(3-fluorophenyl)-5-(1-(3-fluorophenyl)-5-(trifluoromethyl)-1H-pyrazol-4-yl)isoxazole-4-carbohydrazide] | 1000 to 10000
20 | COc1ccc(-c2noc(-c3cnn(-c4cccc(F)c4)c3C(F)(F)F)c2C(=O)O)cc1 [Example I-108, 5-(1-(3-fluorophenyl)-5-(trifluoromethyl)-1H-pyrazol-4-yl)-3-(4-methoxyphenyl)isoxazole-4-carboxylic acid] | 1000 to 10000
21 | COC(=O)c1c(-c2ccc(Cl)c(Cl)c2)noc1-c1cnn(-c2cccc(F)c2)c1C(F)(F)F [Example I-97, methyl 3-(3,4-dichlorophenyl)-5-(1-(3-fluorophenyl)-5-(trifluoromethyl)-1H-pyrazol-4-yl)isoxazole-4-carboxylate] | 1000 to 10000
22 | COC(=O)c1c(-c2c(F)cccc2Cl)noc1-c1cnn(-c2ccc(Cl)cc2Cl)c1C(F)(F)F [Example I-7, methyl 3-(2-chloro-6-fluorophenyl)-5-(1-(2,4-dichlorophenyl)-5-(trifluoromethyl)-1H-pyrazol-4-yl)isoxazole-4-carboxylate] | 1000 to 10000
23 | COC(=O)c1c(-c2c(F)cccc2Cl)noc1-c1cnn(-c2ccccc2I)c1C(F)(F)F [Example I-88, methyl 3-(2-chloro-6-fluorophenyl)-5-(1-(2-iodophenyl)-5-(trifluoromethyl)-1H-pyrazol-4-yl)isoxazole-4-carboxylate] | 1000 to 10000
24 | COC(=O)c1c(-c2ccc(OC)cc2)noc1-c1cnn(-c2cccc(F)c2)c1C(F)(F)F [Example I-107, methyl 5-(1-(3-fluorophenyl)-5-(trifluoromethyl)-1H-pyrazol-4-yl)-3-(4-methoxyphenyl)isoxazole-4-carboxylate] | 1000 to 10000
25 | COC(=O)c1c(-c2ccc(Cl)cc2)noc1-c1cnn(-c2cccc(F)c2)c1C(F)(F)F [Example I-73, methyl 3-(4-chlorophenyl)-5-(1-(3-fluorophenyl)-5-(trifluoromethyl)-1H-pyrazol-4-yl)isoxazole-4-carboxylate] | 1000 to 10000
26 | COC(=O)c1c(-c2c(F)cccc2Cl)noc1-c1cnn(-c2cccc(C(F)(F)F)c2)c1C(F)(F)F [Example I-82, methyl 3-(2-chloro-6-fluorophenyl)-5-(5-(trifluoromethyl)-1-(3-(trifluoromethyl)phenyl)-1H-pyrazol-4-yl)isoxazole-4-carboxylate] | 1000 to 10000
27 | CCOc1cc(-n2ncc(-c3onc(-c4c(F)cccc4Cl)c3C(=O)OC)c2C(F)(F)F)ncn1 [Example I-116, methyl 3-(2-chloro-6-fluorophenyl)-5-(1-(6-ethoxypyrimidin-4-yl)-5-(trifluoromethyl)-1H-pyrazol-4-yl)isoxazole-4-carboxylate] | 1000 to 10000
28 | COC(=O)c1c(-c2c(F)cccc2Cl)noc1-c1cnn(-c2nccc(C(F)(F)F)n2)c1C(F)(F)F [Example I-67, methyl 3-(2-chloro-6-fluorophenyl)-5-(5-(trifluoromethyl)-1-(4-(trifluoromethyl)pyrimidin-2-yl)-1H-pyrazol-4-yl)isoxazole-4-carboxylate] | 100 to 1000

Source: US8354436B2 (4SC Discovery GmbH, priority 2011, dated 2013)
